Source: patent US20150368620A1, “METHOD OF DETACHING ADHERENT CELLS FOR FLOW CYTOMETRY” (KING ABDULLAH UNIVERSITY OF SCIENCE AND TECHNOLOGY, priority 2013, published 2015)

Tests used:
MCF-7 cells [1] = assay: Mitochondrial membrane potential (MMP) JC-1 assay by flow cytometry; format: cell-based; settings: 2 μM JC-1, 100 mM H2O2 positive control, Accuri C6 HTFC, 96-well
Procedure: (§1) The following can be the steps used to determining MMP by Flow Cytometry in adherent cells. […] Add 15 μl of serum free media containing JC-1 dye so that the final concentration is 2 μM in a total volume of 77 μl and incubate for 1-2 h at 37° C. […] 100 mM H2O2 can be used as a positive control.
In FIG. […] Data was analyzed using FlowJo version 7.6.5 software. Cells were seeded at a density of 5×10^3 cells per well in a 96-well plate, the following day cells were left untreated (red) or treated with 100 mM H2O2 as a positive control (blue) for MMP disruption. DU145 cells were stained with a final concentration of 2 μM JC-1 dye (representative image). Cells were lifted with EDTA and analyzed by flow cytometry.

HT1080 cells [2] = assay: APOPercentage apoptosis assay by flow cytometry; format: cell-based; settings: APOPercentage dye, 2.5 mM H2O2 positive control, Accuri C6 HTFC, 96-well
Procedure: (§2) In one method, five thousand cells were plated per well in 45 μl of media in 96-well plate. The cells were shaken at 750 rpm with an Orbital shaker for 20 seconds and allowed to settle for 16-24 hrs in 5% CO2 incubator at 37° C. A desired concentration of drug was added to cells in a volume of […] to make the final volume per well up to 50 μl. The cells and drug were mixed at 750 rpm with an Orbital shaker for 20 seconds and incubated again for desired period of time. Twelve microliters of 15 mM EDTA pH 6.14 (upto 20 mM can be added depending on the cell line) were added per well, mixed at 750 rpm with an Orbital shaker for 20 seconds and incubated at 37° C. for 45 min to 1 hour (until cells lift). Fifteen microliters of media containing 1 μl APOPercentage dye was added to the cells and incubated for 15-20 min at 37° C. The cells were analyzed on flow cytometer setting a threshold for FSC-H of 80,000, cytometer speed at medium (2 μl/sec), peristaltic pump speed at 23 rpm, shaking on 1800 rpm, gating on 2D plot of FSC vs SSC and a 1D plot measuring FL2-H/FL3-H on the X axis. The HTFC system was used.
(§3) The following steps can be used to measure apoptosis using APOPercentage Assay in adherent cells. 5000 cells per well were plated in 45 μl of media in 96-well plate, shaken at 750 rpm with an Orbital shaker for 20 seconds, and allowed to settle 16-24 hours (h). […]

DU145 cells [3] = assay: APOPercentage apoptosis assay by flow cytometry; format: cell-based; settings: APOPercentage dye, 2.5 mM H2O2 positive control, Accuri C6 HTFC, 96-well
Procedure: as §2, §3

MCF-7 cells [4] = assay: APOPercentage apoptosis assay by flow cytometry; format: cell-based; settings: APOPercentage dye, 2.5 mM H2O2 positive control, Accuri C6 HTFC, 96-well
Procedure: (§4) The HTFC system was used.
Untreated and treated MCF-7 cells were analyzed by flow cytometry on an Accuri C6 flow cytometer to determine the percentage of cells undergoing apoptosis (FIG. 3). Cells were seeded at a density of 5×10^3 cells per well in 96 well plate. Cells treated with 2.5 mM H2O2 for 30 minutes or 62 μl EDTA pH 6.14 for 15-30 min. added to cells after removing media were used as a positive control for apoptosis. The cells were lifted and stained with 1 μl APOPercentage dye. The cells were then analyzed by flow cytometry. […] FIG. 3C is a bar graph showing the percentage of non-apoptotic and apoptotic cells within the untreated or treated population of cells.
(§5) Add 15 μl of serum free media containing 1 μl APOPercentage dye and incubate for 15-20 min at 37° C. […] 2.5 mM H2O2 is used as a positive control.
In FIG. 6, MCF-7 Cells untreated (blue, left) or treated (red, right) were analyzed by flow cytometry on a BD LSRFortessa HTS flow cytometer to determine the percentage of cells undergoing apoptosis. Data was analyzed using FlowJo version 7.6.5 software. […] Cells were lifted with EDTA and stained with 1 μl APOPercentage and analyzed by flow cytometry. 1D Histogram of untreated (blue) and treated (red) cells measuring fluorescence in the PE-A channel and applying gates to delineate Non-apoptotic (blue) and Apoptotic (red) cells.

HeLa cells [5] = assay: Mitochondrial membrane potential (MMP) JC-1 assay by flow cytometry; format: cell-based; settings: 2 μM JC-1, 100 mM H2O2 positive control, Accuri C6 HTFC, 96-well
Procedure: as §1

HeLa cells [6] = assay: Reactive oxygen species (ROS) DCFDA assay by flow cytometry; format: cell-based; settings: 10 μM DCFDA, 10 mM H2O2 positive control, Accuri C6 HTFC, 96-well
Procedure: (§6) Add 15 μl of serum free media and incubate for 5-10 min.
In FIG. 9, HeLa and MCF-7 Cells were analyzed by flow cytometry on an Accuri C6 to determine the level of ROS in cells. Cells were seeded at a density of 5×10^3 cells per well in a 96-well plate, the following day cells were treated with 10 mM H2O2 as a positive control for ROS and test compounds. HeLa cells were stained with a final concentration of 10 μM DCFDA dye immediately after adding H2O2 (A). After incubation cells were lifted with EDTA and analyzed by flow cytometry. Separation of untreated (yellow) and treated (purple) cells based on FL-1-H profile (A). MCF-7 cells were treated with Plumbagin and its derivative Crotonate Plumbagin for 1 h (B). A final 10 μM DCFDA was added simultaneously with Plumbagin and its derivative to cells. Following incubation with drug cells were lifted with EDTA and analyzed by flow cytometry.
In FIGS. 10A-B, MCF-7 and HeLa Cells were analyzed by flow cytometry on a BD LSRFortessa HTS to determine the level of ROS in cells. Data was analyzed using FlowJo version 7.6.5 software. Cells were seeded at a density of 5×10^3 cells per well in a 96-well plate, the following day cells were left untreated (blue peak) or treated with 10 mM H2O2 as a positive control (red peak) for ROS. […] Cells were lifted with EDTA and analyzed by flow cytometry.

BT20 cells [7] = assay: as above; format: cell-based; settings: 10 μM DCFDA, 2-10 mM H2O2 positive control, Accuri C6 HTFC, 96-well
Procedure: as §6

HeLa cells [8] = assay: APOPercentage apoptosis assay by flow cytometry; format: cell-based; settings: APOPercentage dye, 2.5 mM H2O2 positive control, Accuri C6 HTFC, 96-well
Procedure: as §4
Untreated and treated HeLa cells were also analyzed by flow cytometry on an Accuri C6 flow cytometer to determine the percentage of cells undergoing apoptosis (FIG. 4). Cells were seeded at a density of 5×10^3 cells per well in 96 well plate. Cells treated with 2.5 mM H2O2 for 30 minutes or 62 μl EDTA pH 6.14 for 15-30 min. added to cells after removing media were used as a positive control for apoptosis. Cells were lifted and stained with […] dye. The cells were then analyzed by flow cytometry. […] FIG. 4C is a bar graph showing the percentage of non-apoptotic and apoptotic cells within the untreated or treated population of cells.
as §5
Cells were seeded at a density of 5×10^3 cells per well in a 96-well plate. Following day, cells were treated with 2.5 mM H2O2 for 30 min. or 62 μl EDTA pH 6.14 for 15-30 min. added to cells after removing media as a positive control for apoptosis for 15-30 min. Cells were lifted with EDTA and stained with […] and analyzed by flow cytometry. […] 1D Histogram of untreated (blue) and treated (red) cells measuring fluorescence in the FL2-H channel and applying gates to delineate Non-apoptotic (blue) and Apoptotic (red) cells (FIG. 5B). […]

MCF-7 cells [9] = assay: Reactive oxygen species (ROS) DCFDA assay by flow cytometry; format: cell-based; settings: 10 μM DCFDA, 2-10 mM H2O2 positive control, Accuri C6 HTFC, 96-well
Procedure: as §6
In FIGS. […] Data was analyzed using FlowJo version 7.6.5 software. Cells were seeded at a density of 5×10^3 cells per well in a 96-well plate, the following day cells were left untreated (blue peak) or treated with 10 mM H2O2 as a positive control (red peak) for ROS. MCF-7 and HeLa cells were stained with a final concentration of 10 μM DCFDA dye immediately after adding H2O2 (A and B). Cells were lifted with EDTA and analyzed by flow cytometry.

DU145 cells [10] = assay: Mitochondrial membrane potential (MMP) JC-1 assay by flow cytometry; format: cell-based; settings: 2 μM JC-1, 100 mM H2O2 positive control, Accuri C6 HTFC, 96-well
Procedure: as §1
In FIGS. 7A-B, DU145 Cells unstained (blue), untreated (red) or treated (green) were analyzed by flow cytometry on an Accuri C6 to determine the percentage of cells with disrupted MMP. Cells were seeded at a density of 5×10^3 cells per well in 96-well plate. Following day media was removed from cells and replaced with 50 μl EDTA as a positive control for MMP disruption for 60 min. Cells were lifted with EDTA and stained with a final concentration of 2 μM JC-1 dye and analyzed by flow cytometry. Separation of unstained (blue), untreated (red) and treated (green) cells based on FL2-H and FL-1-H profile (A). 1D Histogram of unstained (blue), untreated (red) and treated (green) cells measuring fluorescence in the FL2-H channel (B).
In FIG. 8, DU145 and MCF-7 Cells were analyzed by flow cytometry on a BD LSRFortessa HTS to determine the level of MMP in cells. Data was analyzed using FlowJo version 7.6.5 software. […] Cells were lifted with EDTA and analyzed by flow cytometry.

BJ fibroblast cells = assay: APOPercentage apoptosis assay by flow cytometry; format: cell-based; settings: APOPercentage dye, 2.5 mM H2O2 positive control, Accuri C6 HTFC, 96-well
Procedure: as §4
BJ fibroblast cells were analyzed by flow cytometry on an Accuri C6 flow cytometer to determine the percentage of cells undergoing apoptosis (FIG. 2). Cells were seeded at a density of 5×10^3 cells per well in 96 well plate. Cells exposed to 2.5 mM H2O2 for 30 minutes or 62 μl EDTA pH 6.14 for 15-30 min. added to cells after removing media were used as a positive control for apoptosis. Cells were lifted and stained with 1 μl APOPercentage dye. The cells were then analyzed by flow cytometry. […] FIG. 2B includes a 1D Histogram of untreated and treated cells showing the fluorescence measured in the FL2-H channel, where gates were applied to delineate non-apoptotic and apoptotic cells. FIG. 2C is a bar graph showing the percentage of non-apoptotic and apoptotic cells that was measured within the untreated or treated (positive control) population of cells.
as §5

BJ, MCF-7 and HeLa cells = settings: untreated cells lifted with EDTA, APOPercentage staining
Procedure: as §2

BT20 cells [11] = settings: 12 μl of 15 mM EDTA pH 6.14 added to media, 37° C., 96-well
Procedure: 5000 cells per well were plated in 45 μl of media in 96-well plate, shaken at 750 rpm with an Orbital shaker for 20 seconds, and allowed to settle 16-24 hours (h). Desired concentration of drug was added to cells in a volume of […] to make the final volume per well up to 50 μl, was shaken at 750 rpm with an Orbital shaker for 20 seconds, and was then incubated for desired period of time. […] Shake at 750 rpm with an Orbital shaker for 20 seconds and incubate at 37° C. for 15 minutes (min) to 1 h (until cells lift).

BJ cells = settings: 12 μl of 15 mM EDTA pH 6.14 added to media, 37° C., 96-well
Procedure: as §2
(§7) The following steps can be used to measure apoptosis using APOPercentage Assay in adherent cells. 5000 cells per well were plated in 45 μl of media in 96-well plate, shaken at 750 rpm with an Orbital shaker for 20 seconds, and allowed to settle 16-24 hours (h). Desired concentration of drug was added to cells in a volume of […] to make the final volume per well up to 50 μl, was shaken at 750 rpm with an Orbital shaker for 20 seconds, and was then incubated for desired period of time. 12 μl of 15 mM EDTA pH 6.14 per well was added (upto 20 mM can be added depending on the cell line). Shake at 750 rpm with an Orbital shaker for 20 seconds and incubate at 37° C. for 15 minutes (min) to 1 h (until cells lift).

MCF-7 cells [12] = settings: 12 μl of 15 mM EDTA pH 6.14 added to media, 37° C., 96-well
Procedure: as §2, §7

HeLa cells [13] = settings: 12 μl of 15 mM EDTA pH 6.14 added to media, 37° C., 96-well
Procedure: as §2, §7

HT1080 cells [14] = settings: 12 μl of 15 mM EDTA pH 6.14 added to media, 37° C., 96-well
Procedure: as §2, §7

DU145 cells [15] = settings: 12 μl of 15 mM EDTA pH 6.14 added to media, 37° C., 96-well
Procedure: as §2, §7

Structure (SMILES)	Percent cells having JC-1 green in treated positive control (MCF-7 cells [1])	Percent cells stained in positive control (HT1080 cells [2])	Percent cells stained in positive control (DU145 cells [3])	Percent cells stained in positive control (MCF-7 cells [4])	Percent cells having JC-1 green in treated positive control (HeLa cells [5])	Percent cells stained with DCFDA in treated positive control (HeLa cells [6])	Percent cells stained with DCFDA in treated positive control (BT20 cells [7])	Percent cells stained in positive control (HeLa cells [8])	Percent cells stained with DCFDA in treated positive control (MCF-7 cells [9])	Percent cells having JC-1 green in treated positive control (DU145 cells [10])	Percent cells stained in positive control (BJ fibroblast cells)	effect of cell lifting chemical on untreated cells (membrane, apoptosis) (BJ, MCF-7 and HeLa cells)	Time to lift with EDTA (BT20 cells [11])	Time to lift with EDTA (BJ cells)	Time to lift with EDTA (MCF-7 cells [12])	Time to lift with EDTA (HeLa cells [13])	Time to lift with EDTA (HT1080 cells [14])	Time to lift with EDTA (DU145 cells [15])
OO [H2O2]	95%	95%	90%	85%	90%	90%	95%	90%	90%	90%	90%							
O=C(O)CN(CCN(CC(=O)O)CC(=O)O)CC(=O)O [EDTA, ethylenediaminetetraacetic acid]												did not induce unwanted apoptosis in untreated cells	40 to 60 min	30 to 50 min	15 to 20 min	30 to 45 min	20 to 30 min	20 to 30 min
